According to patent US20050033056A1, “Hydroxylated indole derivatives and uses thereof” (priority 2001, published 2005):

Molecular target: T1, CYP2C9 (Homo sapiens, UniProt P11712)
T1 construct: tissue Gentest Corp. (Woburn, Mass.); host or cells: pooled human liver microsomes
Assay: CYP inhibition in HLM: S-warfarin 7-hydroxylation
Type: in vitro ADME
Conditions: 10 or 50 μM
Experimental: The incubations were carried out in test tubes (12.0×75 mm). The incubation mixtures (250 μL) contained 0.5 mg of HLM protein, 50 (CYP1A2 and CYP2E1) or 25 (CYP2C9, CYP2C19, CYP2D6 and CYP3A4) pmol of recombinant human CYPs, Compound 1 (10 or 50 μM), probe substrate (R—, S-warfarin, chlorzoxazone, S-mephenyloin, or bufuralol) at different concentrations, and 0.5 mg of NADPH in 50 mM Tris buffer containing 15 mM MgCl2 (pH 7.4). Compound 1 was added to the reaction mixture 5 minutes prior to the addition of the probe substrate. […]
The quantification was based on the calibration curves, and the quality control (QC) samples were applied to ensure the quality of the experiments. […]
1. CYP1A2/2C9/3A4-mediated warfarin 6-, 7-, 8-, and 10-hydroxylation (Zhang et al., Drug Metab. Dispos. 23:1339-1346, 1995; Rettie et al., Chem. Res. Toxicol. 5:54-59, 1992; Brian et al., Biochemistry 29:11280-11292, 1990): Hewlett Packard 1100 HPLC system (Waldbronn, Germany) comprised a binary pump, an autosampler, a column compartment unit, a photodiode array detector (PDA), and a fluorescence detector. […] The warfarin metabolites, 6-, 8-, and 10-hydroxywarfarin, were monitored by UV at 313 nm, and 7-hydroxywarfarin by fluorescence at Ex320 nm/Em380 nm. […]

T1 sequence (P11712 whole entry): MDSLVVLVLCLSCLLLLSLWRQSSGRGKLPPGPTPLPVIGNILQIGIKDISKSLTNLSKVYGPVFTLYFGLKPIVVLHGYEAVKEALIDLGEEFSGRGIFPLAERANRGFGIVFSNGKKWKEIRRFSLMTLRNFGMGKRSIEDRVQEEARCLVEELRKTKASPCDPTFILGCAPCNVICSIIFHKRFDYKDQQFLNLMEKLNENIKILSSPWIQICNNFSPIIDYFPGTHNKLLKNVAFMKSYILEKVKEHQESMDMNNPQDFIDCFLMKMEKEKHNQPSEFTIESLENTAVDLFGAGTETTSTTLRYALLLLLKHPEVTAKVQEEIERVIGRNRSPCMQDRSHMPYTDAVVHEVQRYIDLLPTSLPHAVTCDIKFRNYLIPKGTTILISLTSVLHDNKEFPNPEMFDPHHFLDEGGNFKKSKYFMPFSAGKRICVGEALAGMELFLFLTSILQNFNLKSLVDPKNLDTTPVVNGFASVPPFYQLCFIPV

CNC(=O)Cc1ccc2ccn(C3CCN(CCc4ccccc4F)CC3)c2c1 [Compound 1, N-methyl-[1-[1-(2-fluorophenethyl)piperidine-4-yl]-1H-indol-6-yl] acetamide]
inhibitory effect on CYP2C9 activity (in words): no inhibitory effect
